Measurements published in patent US10925283B2, “Microbiocidal phenylamidine derivatives” (SYNGENTA PARTICIPATIONS AG, priority 2016, dated 2021).

Legend:
[1] = system: Blumeria graminis f. sp. tritici (Erysiphe graminis f. sp. tritici); experiment: Blumeria graminis f. sp. tritici / wheat / leaf disc preventative (powdery mildew on wheat); assay type: in vivo; settings: foliar, wheat leaf segments cv. Kanzler, inoculated 1 day after application, assessed 6-8 days after application, read-out: control of Blumeria graminis f. sp. tritici (percent disease control compared to untreated)
Method in brief: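 Wheat cv. Kanzler leaf segments on agar were sprayed with formulated compound in water, then inoculated with powdery mildew 1 day after application. Incubation was at 20° C, 60% rh, 24 h dark then 12 h light/12 h dark. Percent disease control versus untreated was scored 6-8 days after application.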

Phakopsora pachyrhizi = Phakopsora pachyrhizi / soybean / preventative (soybean rust); assay type: in vivo; settings: foliar, soybean leaf disks, inoculated one day after application, assessed 12-14 days after application, read-out: control of Phakopsora pachyrhizi (percent disease control compared to untreated)
Procedure: Phakopsora pachyrhizi/Soybean/Preventative (Soybean Rust) Soybean leaf disks are placed on water agar in multiwell plates (24-well format) and sprayed with the formulated test compound diluted in water. One day after application leaf discs are inoculated by spraying a spore suspension on the lower leaf surface. After an incubation period in a climate cabinet of 24-36 hours in darkness at 20° C. and 75% rh leaf disc are kept at 20° C. with 12 h light/day and 75% rh. The activity of a compound is assessed as percent disease control compared to untreated when an appropriate level of disease damage appears in untreated check leaf disks (12-14 days after application).

[2] = system: Puccinia recondita f. sp. tritici; experiment: Puccinia recondita f. sp. tritici / wheat / leaf disc curative (brown rust); assay type: in vivo; settings: foliar, wheat leaf segments cv. Kanzler, compound applied 1 day after inoculation, assessed 6-8 days after application, read-out: control of Puccinia recondita f. sp. tritici (percent disease control compared to untreated)
Method in brief: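 Curative test: leaf segments of wheat cv. Kanzler on agar were inoculated with spores and held dark at 19 °C, 75% rh; formulated compound in water was applied 1 day after inoculation. Segments were then kept at 19 °C, 75% rh under 12 h light/12 h dark, and percent disease control versus untreated was scored 6-8 days after application.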

[3] = system: Puccinia recondita f. sp. tritici; experiment: Puccinia recondita f. sp. tritici / wheat / leaf disc preventative (brown rust); assay type: in vivo; settings: foliar, wheat leaf segments cv. Kanzler, inoculated 1 day after application, assessed 7-9 days after application, read-out: control of Puccinia recondita f. sp. tritici (percent disease control compared to untreated)
Method in brief: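 Leaf segments of wheat cv. Kanzler on agar were sprayed with diluted formulated compound and inoculated with spores 1 day later. Kept at 19° C, 75% rh, 12 h light/12 h dark. Percent disease control versus untreated assessed 7-9 days after application.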

melting point [°C]	SMILES	pest or weed control at 200 ppm [1] [%]	pest or weed control at 200 ppm (Phakopsora pachyrhizi) [%]	pest or weed control at 200 ppm [2] [%]	pest or weed control at 200 ppm [3] [%]
	CCN(C)/C=N/c1cc(OC)c(C(O)(CCOc2ccccc2)C(F)(F)F)cc1C (stereo not shown) [E.054, N-ethyl-N′-[4-[1-hydroxy-3-phenoxy-1-(trifluoromethyl)propyl]-5-methoxy-2-methyl-phenyl]-N-methyl-formamidine]	≥ 80	≥ 80	≥ 80	≥ 80
	CCN(C)/C=N/c1cc(OC)c(C(O)(C2CCOCC2)C(F)(F)F)cc1C (stereo not shown) [E.055, N-ethyl-N′-[5-methoxy-2-methyl-4-(2,2,2-trifluoro-1-hydroxy-1-tetrahydropyran-4-yl-ethyl)phenyl]-N-methyl-formamidine]	≥ 80	≥ 80	≥ 80	≥ 80
	CCO/N=C/CC(O)(c1cc(C)c(/N=C/N(C)CC)cc1OC)C(F)(F)F (stereo not shown) [E.056, N′-[4-[(3E)-3-ethoxyimino-1-hydroxy-1-(trifluoromethyl)propyl]-5-methoxy-2-methyl-phenyl]-N-ethyl-N-methyl-formamidine]	≥ 80	≥ 80	≥ 80	≥ 80
	CCO/N=C(\C)CC(O)(c1cc(C)c(/N=C/N(C)CC)cc1OC)C(F)(F)F (stereo not shown) [E.057, N′-[4-[(3E)-3-ethoxyimino-1-hydroxy-1-(trifluoromethyl)butyl]-5-methoxy-2-methyl-phenyl]-N-ethyl-N-methyl-formamidine]	≥ 80	≥ 80	≥ 80	≥ 80
105 to 107	CCN(C)C=Nc1cc(OC)c(C(O)(C/C(=N/OC)c2ccccc2)C(F)(F)F)cc1C (stereo not shown) [E.059, N-ethyl-N′-[4-[(3Z)-1-hydroxy-3-methoxyimino-3-phenyl-1-(trifluoromethyl)propyl]-5-methoxy-2-methyl-phenyl]-N-methyl-formamidine]	≥ 80	≥ 80	≥ 80	≥ 80
90 to 93	CCN(C)/C=N/c1cc(OC)c(C(O)(C(F)(F)F)C(C)(C)C#N)cc1C (stereo not shown) [E.060, N′-[4-[2-cyano-1-hydroxy-2-methyl-1-(trifluoromethyl)propyl]-5-methoxy-2-methyl-phenyl]-N-ethyl-N-methyl-formamidine]	≥ 80	≥ 80	≥ 80	≥ 80
86 to 88	CCN(C)/C=N/c1cc(OC)c(C(O)(CC#N)C(F)(F)F)cc1C (stereo not shown) [E.061, N′-[4-[1-(cyanomethyl)-2,2,2-trifluoro-1-hydroxy-ethyl]-5-methoxy-2-methyl-phenyl]-N-ethyl-N-methyl-formamidine]	≥ 80		≥ 80	≥ 80
56 to 58	CCN(C)/C=N/c1cc(OC)c(C(O)(CS(=O)(=O)Cc2ccccc2)C(F)(F)F)cc1C (stereo not shown) [E.064, N′-[4-[1-(benzylsulfonylmethyl)-2,2,2-trifluoro-1-hydroxy-ethyl]-5-methoxy-2-methyl-phenyl]-N-ethyl-N-methyl-formamidine]	≥ 80		≥ 80	≥ 80
103 to 105	CCN(C)/C=N/c1cc(OC)c(C(O)(CS(=O)(=O)c2ccccc2)C(F)(F)F)cc1C (stereo not shown) [E.065, N′-[4-[1-(benzenesulfonylmethyl)-2,2,2-trifluoro-1-hydroxy-ethyl]-5-methoxy-2-methyl-phenyl]-N-ethyl-N-methyl-formamidine]	≥ 80		≥ 80	≥ 80
	CCN(C)/C=N/c1cc(OC)c(C(O)(CSc2ccc(F)cc2)C(F)(F)F)cc1C (stereo not shown) [E.068, N-ethyl-N′-[5-methoxy-2-methyl-4-[2,2,2-trifluoro-1-[(4-fluorophenyl)sulfanylmethyl]-1-hydroxy-ethyl]phenyl]-N-methyl-formamidine]	≥ 80	≥ 80	≥ 80	≥ 80
	CCN(C)/C=N/c1cc(OC)c(C(O)(CSCc2ccccc2)C(F)(F)F)cc1C (stereo not shown) [E.069, N′-[4-[1-(benzylsulfanylmethyl)-2,2,2-trifluoro-1-hydroxy-ethyl]-5-methoxy-2-methyl-phenyl]-N-ethyl-N-methyl-formamidine]	≥ 80	≥ 80	≥ 80	≥ 80
81 to 83	CCSCC(O)(c1cc(C)c(/N=C/N(C)CC)cc1OC)C(F)(F)F (stereo not shown) [E.073, N-ethyl-N′-[4-[1-(ethylsulfanylmethyl)-2,2,2-trifluoro-1-hydroxy-ethyl]-5-methoxy-2-methyl-phenyl]-N-methyl-formamidine]	≥ 80			≥ 80
115 to 116.6	CCN(C)/C=N/c1cc(OC)c(C(O)(C2=COCCC2)C(F)(F)F)cc1C (stereo not shown) [E.074, N′-[4-[1-(3,4-dihydro-2H-pyran-5-yl)-2,2,2-trifluoro-1-hydroxy-ethyl]-5-methoxy-2-methyl-phenyl]-N-ethyl-N-methyl-formamidine]	≥ 80		≥ 80	≥ 80
	CCN(C)/C=N/c1cc(OC)c(C(O)(C2CCC(OC)CC2)C(F)(F)F)cc1C (stereo not shown) [E.075, N-ethyl-N′-[5-methoxy-2-methyl-4-[2,2,2-trifluoro-1-hydroxy-1-(4-methoxycyclohexyl)ethyl]phenyl]-N-methyl-formamidine]	≥ 80	≥ 80	≥ 80	≥ 80
	CCN(C)/C=N/c1cc(OC)c(C(O)(C2CCC(OC(C)C)CC2)C(F)(F)F)cc1C (stereo not shown) [E.078, N-ethyl-N′-[5-methoxy-2-methyl-4-[2,2,2-trifluoro-1-hydroxy-1-(4-isopropoxycyclohexyl)ethyl]phenyl]-N-methyl-formamidine]	≥ 80	≥ 80	≥ 80	≥ 80
	CCCOC1CCC(C(O)(c2cc(C)c(/N=C/N(C)CC)cc2OC)C(F)(F)F)CC1 (stereo not shown) [E.079, N-ethyl-N′-[5-methoxy-2-methyl-4-[2,2,2-trifluoro-1-hydroxy-1-(4-propoxycyclohexyl)ethyl]phenyl]-N-methyl-formamidine]	≥ 80	≥ 80	≥ 80	≥ 80
	CCOC1CCC(C(O)(c2cc(C)c(/N=C/N(C)CC)cc2OC)C(F)(F)F)CC1 (stereo not shown) [E.080, N′-[4-[1-(4-ethoxycyclohexyl)-2,2,2-trifluoro-1-hydroxy-ethyl]-5-methoxy-2-methyl-phenyl]-N-ethyl-N-methyl-formamidine]	≥ 80	≥ 80	≥ 80	≥ 80
	CCN(C)/C=N/c1cc(OC)c(C(O)(C/C(C)=N/OCc2ccccc2)C(F)(F)F)cc1C (stereo not shown) [E.081]	≥ 80	≥ 80	≥ 80	≥ 80
